The values that follow come from ChEMBL document CHEMBL1152704, “Synthesis and structure-function analysis of Fe(II)-form-selective antibacterial inhibitors of Escherichia coli methionine aminopeptidase” (Bioorg Med Chem Lett, 2009).

Test [1] in a line: Inhibition of cobalt-activated Escherichia coli MetAP.
A short description of test [2]: Inhibition of ferrous-activated Escherichia coli MetAP.
Test [3] is described as follows: Inhibition of mangnese-activated Escherichia coli MetAP.
Test [4] has as its system Escherichia coli. The experiment in a line: Antibacterial activity against Escherichia coli AS19. It is filed as functional, organism-based.

The structures appear in SMILES notation. ≈ marks a conversion by molar mass, not a printed value.

Usually IC50 stands for the midpoint of a concentration-inhibition curve. The MIC is the least concentration at which growth counts as inhibited. Consider `COC(=O)c1ncoc1-c1cccc(O)c1O`, for which the IC50 is over 100 µM in test [1], 14 µM in test [2], over 100 µM in test [3] and 120 µM in test [4]. This compound also returned a minimum inhibitory concentration (MIC) in test [4] of 99 µg/mL (≈ 421 µM).
Consider `C=CCCNC(=O)c1ncoc1-c1cccc(O)c1O`, for which the IC50 in test [1] was over 100 µM; in test [2], 13.4 µM; in test [3], over 100 µM; in test [4], 97.2 µM. In test [4], this compound registered a minimal inhibitory concentration (MIC) of 99 µg/mL (≈ 361 µM).
For the compound `COc1cnc(-c2cccc(O)c2O)o1`, the IC50 in test [1] was over 100 µM; in test [2], 11.2 µM; in test [3] it was over 100 µM; in test [4], 228 µM. Moreover, in test [4], the minimal inhibitory concentration (MIC) was 164 µg/mL (≈ 792 µM).
For the compound `O=C(NC1CC1)c1ccc(-c2ccc(O)c(O)c2)o1`, the IC50 in test [1] is over 100 µM; in test [2], 14.8 µM; in test [3], over 100 µM; in test [4], 55 µM. In test [4], 26 µg/mL (≈ 100 µM) was the least that counted as inhibitory (MIC).
`C=CCCNC(=O)c1ccc(-c2ccc(O)c(O)c2)o1`: the IC50 was determined as 21.2 µM in test [1], 1 µM in test [2], 6.7 µM in test [3] and 50.8 µM in test [4]. In test [4], this compound registered a minimal inhibitory concentration (MIC) of 39 µg/mL (≈ 143 µM).
On to `Oc1ccc(-c2ccccn2)cc1O`, for which the half-inhibitory concentration (IC50) is over 100 µM in test [1], 19.3 µM in test [2], over 100 µM in test [3] and 211 µM in test [4]. Besides, the minimal inhibitory concentration (MIC) in test [4] came to 106 µg/mL (≈ 566 µM).
Turning to `Oc1ccc(-c2ncccn2)cc1O`, the IC50 is over 100 µM in test [1], 25.5 µM in test [2], over 100 µM in test [3] and over 250 µM in test [4].
Turning to `Cn1ccnc1-c1ccc(O)c(O)c1`, the IC50 is over 100 µM in test [1], over 100 µM in test [2], over 100 µM in test [3] and over 250 µM in test [4].
Regarding `O=C(NC1CCCC1)c1ncoc1-c1cccc(O)c1O`, the half-inhibitory concentration (IC50) in test [1] is over 100 µM; in test [2], 11 µM; in test [3], over 100 µM; in test [4], 165 µM. Further, in test [4], the MIC turned out to be 199 µg/mL (≈ 690 µM).
For the compound `O=C(NC1CCCC1)c1ccc(-c2ccc(O)c(O)c2)o1`, the IC50 in test [1] was 30.1 µM; in test [2], 0.9 µM; in test [3] it was 11.8 µM; in test [4] it was 23.4 µM. In addition, in test [4], the minimal inhibitory concentration (MIC) was determined as 19 µg/mL (≈ 66.1 µM).
In the same order, the values of `O=C(NC1CCC1)c1ccc(-c2ccc(O)c(O)c2)o1` are 22.5 µM, 1.2 µM, 7.9 µM, 43.9 µM and 29 µg/mL (≈ 106 µM).
In the same order, the values of `Oc1ccc(-c2ncc(F)cn2)cc1O` are 52.6 µM, 10.6 µM, over 100 µM, 206 µM and 80 µg/mL (≈ 388 µM).
In the same order, the values of `Oc1ccc(-c2cn(Cc3ccccc3)nn2)cc1O` are 24.6 µM, 16.1 µM, 19.5 µM, 97.7 µM and 79 µg/mL (≈ 296 µM).
